Experiments:
BeWo cells = test: Forskolin-induced trophoblast syncytialization in the microfluidic device (immunofluorescence); format: cell-based, human
Description: (§1) Following the formation of a confluent epithelial monolayer on the membrane surface in the upper microchannel, the apical side of the epithelium can be treated with forskolin to activate the protein kinase A pathway in the cultured trophoblasts. A stock solution of forskolin (Sigmal 5 mg/mL in DMSO) can be diluted with F-12K medium to a final concentration of 50 uM and perfused through the upper microchannel. After 72 hours of forskolin treatment, the trophoblast cells can be fixed in 4% PFA, permeabilized in Triton-X 100, and then incubated with 2% BSA in PBS for immunofluorescence staining. To analyze changes in junctional protein expression, the samples can be incubated with anti-E-cadherin antibody (Life Technologies) in 2% BSA, followed by secondary antibody and DAPI. Additionally, media perfusate can be collected at 48, 72, and 96 hours from both untreated and forskolin-treated devices. The collected samples can be analyzed using a human chorionic gonadotropin beta (β-hCG) ELISA kit (Abcam) to quantify the levels of β-hCG produced by the trophoblast population at each time point.
Accordingly, when the BeWo cells in the maternal compartment are exposed to forskolin, they can begin to undergo cell-cell fusion as illustrated by nuclear aggregation that can be evident at 72 hours of forskolin treatment (FIG. 9B). […]

trophoblast cells = test: β-hCG ELISA of maternal compartment perfusate; format: cell-based, human; settings: 50 uM forskolin; no detectable β-hCG in the absence of forskolin
Description: as §1, with “([…]” for “(Sigmal”, “point. […] Accordingly, the production of the […] of hCG in the maternal compartment can be measured to quantitatively examine syncytialization. […]” for “point.”

With `C=C[C@@]1(C)CC(=O)[C@]2(O)[C@@]3(C)[C@@H](O)CCC(C)(C)[C@@H]3[C@H](O)[C@H](OC(C)=O)[C@@]2(C)O1` [forskolin] the “fraction of BeWo population undergoing cell-cell fusion (nuclear aggregation)” value (BeWo cells; 50 uM forskolin in upper microchannel, 72 hours) was “approximately 50%”, the “effect on cell viability” value (BeWo cells; 50 uM forskolin, BeWo cells in maternal compartment) was “does not necessarily exert deleterious effects on cell viability” and the “time to production of hCG by trophoblast cells” value (trophoblast cells) was ≤ 48 h.

From patent US12680065B2, “Artificial placenta and methods of preparation” (The Trustees of the University of Pennsylvania, priority 2015, dated 2026)
